Test results published in patent US10898481B2 (priority 2018, dated 2021).

Biological target: hA2a/CHO (Homo sapiens (Human), UniProt P29274)
Assay: cAMP inhibition assay in hA2a/CHO cells, 10 μM adenosine;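 further: compounds added to cells 30 min ahead of adenosine, then a further 30 min at 37 °C with adenosine before cAMP detection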
Format: cell-based
Conditions: read-out: cAMP & FLIPR IC50 (nM) hA2a
Method: hA2a/CHO, hA2b/CHO, hA3/CHO and mA2a/CHO (Genscript) were plated at 5×10^3 cells/well into 384-well polystyrene plates at the day of experiment. Compounds were pre-incubated with cells for 30 min at 37° C., 5% CO2. Then 10 μM adenosine was added to the cells and incubated for 30 min at 37° C., 5% CO2. Detection reagent (CISBIO) was added and the plates were incubated for 60 min at room temperature. The signal was captured by Envision.

hA2a/CHO, sequence (P29274 whole entry): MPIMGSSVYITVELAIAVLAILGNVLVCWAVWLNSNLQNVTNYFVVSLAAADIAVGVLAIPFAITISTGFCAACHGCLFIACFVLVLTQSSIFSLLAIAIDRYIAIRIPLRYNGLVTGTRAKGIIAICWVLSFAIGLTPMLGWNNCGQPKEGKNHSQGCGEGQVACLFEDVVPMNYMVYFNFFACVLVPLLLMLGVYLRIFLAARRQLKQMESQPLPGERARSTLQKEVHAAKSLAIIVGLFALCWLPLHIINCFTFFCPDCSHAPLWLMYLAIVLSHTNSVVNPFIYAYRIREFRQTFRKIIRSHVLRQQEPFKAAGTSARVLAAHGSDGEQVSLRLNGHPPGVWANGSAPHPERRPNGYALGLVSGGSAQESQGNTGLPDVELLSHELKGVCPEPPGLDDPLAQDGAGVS

SMILES	IC50 [nM]
Cc1cnc2ccc(-c3nc(C(=O)NCc4cccc(N5CC6(CN(C)C6)C5)n4)c(N)nc3-c3ncco3)cn12 [Example 284, 3-amino-N-[(6-[6-methyl-2,6-diazaspiro[3.3]heptan-2-yl]pyridin-2-yl)methyl]-6-[3-methylimidazo[1,2-a]pyridin-6-yl]-5-(1,3-oxazol-2-yl)pyrazine-2-carboxamide]	0.7
Cc1cnc2ccc(-c3nc(C(=O)NCC4OCC4(C)C)c(N)nc3-c3ncco3)cn12 (single isomer, unassigned; isomer 2) [Example 289, 3-amino-N-((3,3-dimethyloxetan-2-yl)methyl)-6-(3-methylimidazo[1,2-a]pyridin-6-yl)-5-(oxazol-2-yl)pyrazine-2-carboxamide (isomer 2)]	1.9
Cc1cnc2ccc(-c3nc(C(=O)NCC4CCOC4)c(N)nc3-c3ccccn3)cn12 (single isomer, unassigned) [Example 304, 3-amino-6-[3-methylimidazo[1,2-a]pyridin-6-yl]-N-[[oxolan-3-yl]methyl]-5-(pyridin-2-yl)pyrazine-2-carboxamide]	8.2
Cc1cnc2ccc(-c3nc(C(=O)NCc4cccc(N5C[C@@H]6C[C@H]5CN6C)n4)c(N)nc3-c3ncco3)cn12 [Example 283, 3-amino-N-((6-((lS,4S)-5-methyl-2,5-diazabicyclo[2.2.1]heptan-2-yl)pyridin-2-yl)methyl)-6-(3-methylimidazo[1,2-a]pyridin-6-yl)-5-(oxazol-2-yl)pyrazine-2-carboxamide]	3.4
Cc1cnc2ccc(-c3nc(C(=O)NCc4cccc(N5CCN(C)C[C@@H]5C)n4)c(N)nc3-c3ncco3)cn12 [Example 287-2, (S)-3-amino-N-((6-(2,4-dimethylpiperazin-1-yl)pyridin-2-yl)methyl)-6-(3-methylimidazo[1,2-a]pyridin-6-yl)-5-(oxazol-2-yl)pyrazine-2-carboxamide]	4.4
Cc1cnc2ccc(-c3nc(C(=O)N[C@@H](C)Cn4nccn4)c(N)nc3-c3ncco3)cn12 [Example 297, 3-amino-6-[3-methylimidazo[1,2-a]pyridin-6-yl]-5-(1,3-oxazol-2-yl)-N-[(2S)-1-(2H-1,2,3-triazol-2-yl)propan-2-yl]pyrazine-2-carboxamide]	0.2
CNCCOc1cccnc1CNC(=O)c1nc(-c2ccc3ncc(C)n3c2)c(-c2ncco2)nc1N [Example 301, 3-amino-N-([3-[2-(methylamino)ethoxy]pyridin-2-yl]methyl)-6-[3-methylimidazo[1,2-a]pyridin-6-yl]-5-(1,3-oxazol-2-yl)pyrazine-2-carboxamide]	3
COC1CCCC(NC(=O)c2nc(-c3ccc4ncc(C)n4c3)c(-c3ncco3)nc2N)C1 (single isomer, unassigned; isomer4) [Example 295, 3-amino-N-(3-methoxycyclohexyl)-6-(3-methylimidazo[1,2-a]pyridin-6-yl)-5-(oxazol-2-yl) pyrazine-2-carboxamide (isomer4)]	13
Cc1cnc2ccc(-c3nc(C(=O)NC(C)Cn4cncn4)c(N)nc3-c3ncco3)cn12 (racemic) [Example 306, rac-N-(1-(1H-1,2,4-triazol-1-yl)propan-2-yl)-3-amino-6-(3-methylimidazo [1,2-a]pyridin-6-yl)-5-(oxazol-2-yl) pyrazine-2-carboxamide]	14
Cc1cnc2ccc(-c3nc(C(=O)NCC4OCC4(C)C)c(N)nc3-c3ncco3)cn12 (single isomer, unassigned; isomer 1) [Example 288, 3-amino-N-((3,3-dimethyloxetan-2-yl)methyl)-6-(3-methylimidazo[1,2-a]pyridin-6-yl)-5-(oxazol-2-yl)pyrazine-2-carboxamide (isomer 1)]	0.6
Cc1cnc2ccc(-c3nc(C(=O)NCC4CCCOC4)c(N)nc3-c3ncco3)cn12 (single isomer, unassigned; isomer 1) [Example 167, 3-amino-6-(3-methylimidazo[1,2-a]pyridin-6-yl)-5-(oxazol-2-yl)-N-((tetrahydro-2H-pyran-3-yl)methyl)pyrazine-2-carboxamide (isomer 1)]	1.2
Cc1cnc2ccc(-c3nc(C(=O)NCC(C)(C)C(=O)N(C)C)c(N)nc3-c3ncco3)cn12 [Example 281, 3-[(3-amino-6-[3-methylimidazo[1,2-a]pyridin-6-yl]-5-(1,3-oxazol-2-yl)pyrazin-2-yl)formamido]-N,N,2,2-tetramethylpropanamide]	0.3
COC1CCCC(NC(=O)c2nc(-c3ccc4ncc(C)n4c3)c(-c3ncco3)nc2N)C1 (single isomer, unassigned; isomer 1) [Example 292, 3-amino-N-(3-methoxycyclohexyl)-6-(3-methylimidazo[1,2-a]pyridin-6-yl)-5-(oxazol-2-yl)pyrazine-2-carboxamide (isomer 1)]	0.4
Cc1cnc2ccc(-c3nc(C(=O)NCc4cccc(N5CC6(CCN(C)C6)C5)n4)c(N)nc3-c3ncco3)cn12 [Cmpd. 175, 3-amino-N-((6-(6-methyl-2,6-diazaspiro[3.4]octan-2-yl)pyridin-2-yl)methyl)-6-(3-methylimidazo[1,2-a]pyridin-6-yl)-5-(oxazol-2-yl)pyrazine-2-carboxamide]	0.9
COCCCNC(=O)c1nc(-c2ccc3ncc(C)n3c2)c(-n2nccn2)nc1N [Example 299, 3-amino-N-(3-methoxypropyl)-6-(3-methylimidazo[1,2-a]pyridin-6-yl)-5-(2H-1,2,3-triazol-2-yl)pyrazine-2-carboxamide]	4.9
COC1CCOC1CNC(=O)c1nc(-c2ccc3ncc(C)n3c2)c(-c2ncco2)nc1N (single isomer, unassigned) [Example 280, 3-amino-N-((3-methoxytetrahydrofuran-2-yl)methyl)-6-(3-methylimidazo[1,2-a]pyridin-6-yl)-5-(oxazol-2-yl)pyrazine-2-carboxamide]	0.6
Cc1cnc2ccc(-c3nc(C(=O)N[C@H](C)Cn4nccn4)c(N)nc3-c3ncco3)cn12 [Example 298, 3-amino-6-[3-methylimidazo[1,2-a]pyridin-6-yl]-5-(1,3-oxazol-2-yl)-N-[(2R)-1-(2H-1,2,3-triazol-2-yl)propan-2-yl]pyrazine-2-carboxamide]	47
Cc1cnc2ccc(-c3nc(C(=O)NCc4cccc(N5CCN(C)[C@@H](C)C5)n4)c(N)nc3-c3ncco3)cn12 [Example 286, (S)-3-amino-N-((6-(3,4-dimethylpiperazin-1-yl)pyridin-2-yl)methyl)-6-(3-methylimidazo[1,2-a]pyridin-6-yl)-5-(oxazol-2-yl)pyrazine-2-carboxamide]	3.2
COC1CCCC(NC(=O)c2nc(-c3ccc4ncc(C)n4c3)c(-c3ncco3)nc2N)C1 (single isomer, unassigned; isomer 3) [Example 294, 3-amino-N-(3-methoxycyclohexyl)-6-(3-methylimidazo[1,2-a]pyridin-6-yl)-5-(oxazol-2-yl)pyrazine-2-carboxamide (isomer 3)]	0.2
Cc1cnc2ccc(-c3nc(C(=O)NC[C@H]4CCCN4C)c(N)nc3-c3ccccc3)cn12 [Cmpd. 259, 3-amino-6-[3-methylimidazo[1,2-a]pyridin-6-yl]-N-[[(2R)-1-methylpyrrolidin-2-yl]methyl]-5-phenylpyrazine-2-carboxamide]	3.7
Cc1cnc2ccc(-c3nc(C(=O)NCC4CCCOC4)c(N)nc3-c3ncco3)cn12 (single isomer, unassigned; isomer 2) [Example 168, 3-amino-6-(3-methylimidazo[1,2-a]pyridin-6-yl)-5-(oxazol-2-yl)-N-((tetrahydro-2H-pyran-3-yl)methyl) pyrazine-2-carboxamide (isomer 2)]	1.1
Cc1cnc2ccc(-c3nc(CNC(=O)[C@H]4CCCN4C)c(N)nc3-c3cc(F)cc(F)c3)cn12 [Example 291, (2R)—N-[[3-amino-5-(3,5-difluorophenyl)-6-[3-methylimidazo[1,2-a]pyridin-6-yl]pyrazin-2-yl]methyl]-1-methylpyrrolidine-2-carboxamide]	1.1
Cc1cnc2ccc(-c3nc(C(=O)NCc4ncccc4OCCO)c(N)nc3-c3ncco3)cn12 [Example 300, 3-amino-N-((3-(2-hydroxyethoxy)pyridin-2-yl)methyl)-6-(3-methylimidazo [1,2-a]pyridin-6-yl)-5-(oxazol-2-yl) pyrazine-2-carboxamide]	0.8
Cc1cnc2ccc(-c3nc(C(=O)NC[C@H]4CCCN4C)c(N)nc3-c3ccc(F)c(F)c3)cn12 [Cmpd. 272, 3-amino-5-(3,4-difluorophenyl)-6-[3-methylimidazo[1,2-a]pyridin-6-yl]-N-[[(2R)-1-methylpyrrolidin-2-yl]methyl]pyrazine-2-carboxamide]	37
Cc1cnc2ccc(-c3nc(CNC(=O)[C@H]4CCCN4C)c(N)nc3-n3nccn3)cn12 [Example 290, (2R)—N-[(3-amino-6-[3-methylimidazo[1,2-a]pyridin-6-yl]-5-(2H-1,2,3-triazol-2-yl)pyrazin-2-yl)methyl]-1-methylpyrrolidine-2-carboxamide]	5.8
Cc1cnc2ccc(-c3nc(C(=O)NC[C@H]4CCCN4C)c(N)nc3-c3cccc(F)c3)cn12 [Cmpd. 231, (R)-3-amino-5-(3-fluorophenyl)-6-(3-methylimidazo[1,2-a]pyridin-6-yl)-N-((1-methylpyrrolidin-2-yl)methyl)pyrazine-2-carboxamide]	6.2
Cc1cnc2ccc(-c3nc(C(=O)N[C@@H](C)Cn4ccnn4)c(N)nc3-c3ncco3)cn12 [Example 296, (S)-N-(1-(lH-1,2,3-triazol-1-yl)propan-2-yl)-3-amino-6-(3-methylimidazo[1,2-a]pyridin-6-yl)-5-(oxazol-2-yl) pyrazine-2-carboxamide]	0.9
Cc1cnc2ccc(-c3nc(CNC(=O)[C@H]4CCCN4C)c(N)nc3-c3ccc(F)c(F)c3)cn12 [Cmpd. 257, (2R)—N-[[3-amino-5-(3,4-difluorophenyl)-6-[3-methylimidazo[1,2-a]pyridin-6-yl]pyrazin-2-yl]methyl]-1-methylpyrrolidine-2-carboxamide]	1.5
